Data from ChEMBL document CHEMBL1201862, “PubChem BioAssay data set” (2004).
Active and inactive are the calls of the source.

Assays:
[1] = target: Mitogen-activated protein kinase 10 (Homo sapiens, UniProt P53779); assay: Dose response biochemical screening assay for inhibitors of c-Jun N-Terminal Kinase 3 (JNK3). [Related pubchem assays: 746 ]
[2] = inhibition of ADAM10 peptide cleavage – biochemical, FRET peptide substrate, recombinant human ADAM10, selectivity assay for ADAM17 exosite inhibitor project, dose response (AID 743259);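 further: ADAM10 enzyme cleaving a FRET peptide substrate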
[3] = target: Disintegrin and metalloproteinase domain-containing protein 17 (Homo sapiens, UniProt P78536); assay: exosite inhibitors of ADAM17, dose response, biochemical (AID 743260)
Chain of Disintegrin and metalloproteinase domain-containing protein 17 (P78536 whole entry, the tested form may be a part): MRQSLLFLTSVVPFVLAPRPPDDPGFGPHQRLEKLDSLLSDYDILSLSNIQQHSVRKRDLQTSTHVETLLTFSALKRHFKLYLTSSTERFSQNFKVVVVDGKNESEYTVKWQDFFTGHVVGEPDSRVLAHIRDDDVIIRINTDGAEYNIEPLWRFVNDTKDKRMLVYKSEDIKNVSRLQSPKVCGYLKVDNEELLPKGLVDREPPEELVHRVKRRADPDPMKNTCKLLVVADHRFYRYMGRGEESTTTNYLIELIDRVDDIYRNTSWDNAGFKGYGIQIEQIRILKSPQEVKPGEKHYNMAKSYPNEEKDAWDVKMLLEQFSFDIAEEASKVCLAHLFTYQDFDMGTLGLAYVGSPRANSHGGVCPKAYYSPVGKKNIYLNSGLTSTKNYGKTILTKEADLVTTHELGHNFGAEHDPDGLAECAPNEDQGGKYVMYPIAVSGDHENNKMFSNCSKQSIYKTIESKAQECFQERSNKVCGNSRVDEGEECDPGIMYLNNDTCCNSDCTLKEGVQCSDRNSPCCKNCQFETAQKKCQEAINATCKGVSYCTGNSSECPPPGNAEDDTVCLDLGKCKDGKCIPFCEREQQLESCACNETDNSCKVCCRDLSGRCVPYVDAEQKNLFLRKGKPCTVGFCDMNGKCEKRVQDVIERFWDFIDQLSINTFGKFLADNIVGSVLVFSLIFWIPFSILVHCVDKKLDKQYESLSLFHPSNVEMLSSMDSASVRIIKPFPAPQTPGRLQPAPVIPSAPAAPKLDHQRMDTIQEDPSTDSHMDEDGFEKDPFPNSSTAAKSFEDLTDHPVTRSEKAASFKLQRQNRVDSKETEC

Beta-galactosidase = Beta-galactosidase (Escherichia coli, UniProt Q8VNN2); assay: Dose response counterscreen for EBI2 assay utilizing the enzyme, b-galactosidase.; assay type: functional
[4] = M. tuberculosis growth inhibition, HTS (AID 449762); assay type: functional
[5] = microbe, parasite or virus in culture; assay type: functional; conditions: Mycobacterium tuberculosis
NADPH oxidase 1 [6] = target: T1, NADPH oxidase 1 (Homo sapiens, UniProt Q9Y5S8); assay: Late-stage luminescence-based cell-based dose response assay to identify inhibitors of NADPH oxidase 1 (NOX1): Synthesized analogs 2.; assay type: functional
T1 sequence (Q9Y5S8 whole entry): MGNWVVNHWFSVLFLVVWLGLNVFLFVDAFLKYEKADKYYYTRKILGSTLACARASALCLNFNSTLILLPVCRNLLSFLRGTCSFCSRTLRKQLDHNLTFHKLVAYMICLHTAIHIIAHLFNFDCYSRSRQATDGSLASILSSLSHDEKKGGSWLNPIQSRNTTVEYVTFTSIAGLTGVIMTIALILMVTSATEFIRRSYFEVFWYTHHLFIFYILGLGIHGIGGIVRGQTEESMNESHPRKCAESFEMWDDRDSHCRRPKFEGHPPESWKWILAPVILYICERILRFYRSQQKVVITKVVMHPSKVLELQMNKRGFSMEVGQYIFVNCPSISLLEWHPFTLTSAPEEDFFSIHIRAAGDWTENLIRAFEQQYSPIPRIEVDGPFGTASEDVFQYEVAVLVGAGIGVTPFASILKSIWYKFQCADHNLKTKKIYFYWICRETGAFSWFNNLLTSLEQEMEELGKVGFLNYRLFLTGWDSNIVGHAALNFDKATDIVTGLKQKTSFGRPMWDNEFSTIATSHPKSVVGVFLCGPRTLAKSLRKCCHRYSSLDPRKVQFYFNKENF

NADPH oxidase 1 [7] = target: T1, NADPH oxidase 1; assay: Late-stage luminescence-based cell-based dose response assay to identify inhibitors of NADPH oxidase 1 (NOX1): Synthesized analogs 3.; assay type: functional
[8] = Luminescent dose response cell-based high throughput screening assay for inhibitors of the Janus kinase 2 mutant JAK2V617F. [Related pubchem assays: 1446 (Primary screen.), 1521 (Confirmation assay.), 1486 (Counter screen.)]; assay type: functional
[9] = target: 5-hydroxytryptamine receptor 1A (Homo sapiens, UniProt P08908); assay type: functional
Chain of 5-hydroxytryptamine receptor 1A (P08908 whole entry): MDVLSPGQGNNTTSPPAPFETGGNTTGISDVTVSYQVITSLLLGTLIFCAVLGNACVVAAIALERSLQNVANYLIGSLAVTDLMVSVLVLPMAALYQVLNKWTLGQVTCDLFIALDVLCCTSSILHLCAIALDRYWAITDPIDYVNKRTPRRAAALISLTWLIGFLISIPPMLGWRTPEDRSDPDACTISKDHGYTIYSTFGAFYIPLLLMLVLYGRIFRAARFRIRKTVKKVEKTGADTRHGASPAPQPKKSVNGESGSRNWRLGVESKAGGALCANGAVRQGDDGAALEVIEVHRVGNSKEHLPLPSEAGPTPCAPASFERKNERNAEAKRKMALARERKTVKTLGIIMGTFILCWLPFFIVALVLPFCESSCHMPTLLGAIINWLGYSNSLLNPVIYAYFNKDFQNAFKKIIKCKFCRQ

[10] = target: Photoreceptor-specific nuclear receptor (Homo sapiens, UniProt Q9Y5X4); assay: ligands suppressing NR2E3 nuclear receptor activity – biochemical, TR-FRET, dose response (AID 463256); assay type: functional
[11] = target: Peroxisome proliferator-activated receptor gamma/Nuclear receptor corepressor 2 (Homo sapiens, UniProt P37231+Q9Y618); assay: Counterscreen for NR2E3 inverse agonists: TR-FRET-based biochemical high throughput dose response assay to identify inverse agonists of the interaction between peroxisome proliferator-activated receptor gamma (PPARg) and nuclear receptor co-repressor 2 (NCOR2).; assay type: functional
Protein Tat = Protein Tat (Human immunodeficiency virus type 1 group M subtype B (isolate HXB2)(HIV-1), UniProt P04608); assay type: functional;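 further: tat binding to TAR RNA read out by fluorescence polarization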
Chain of Protein Tat (P04608 whole entry): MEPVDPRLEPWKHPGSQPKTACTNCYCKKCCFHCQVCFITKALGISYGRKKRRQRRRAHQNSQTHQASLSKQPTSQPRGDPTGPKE

[12] = target: Sphingosine 1-phosphate receptor 2 (Homo sapiens, UniProt O95136); assay: Dose Response Cell Based Assay for Agonists of the S1P2 Receptor. [Related pubchem assays: 729, 736, 843 ]; assay type: functional
Chain of Sphingosine 1-phosphate receptor 2 (O95136 whole entry): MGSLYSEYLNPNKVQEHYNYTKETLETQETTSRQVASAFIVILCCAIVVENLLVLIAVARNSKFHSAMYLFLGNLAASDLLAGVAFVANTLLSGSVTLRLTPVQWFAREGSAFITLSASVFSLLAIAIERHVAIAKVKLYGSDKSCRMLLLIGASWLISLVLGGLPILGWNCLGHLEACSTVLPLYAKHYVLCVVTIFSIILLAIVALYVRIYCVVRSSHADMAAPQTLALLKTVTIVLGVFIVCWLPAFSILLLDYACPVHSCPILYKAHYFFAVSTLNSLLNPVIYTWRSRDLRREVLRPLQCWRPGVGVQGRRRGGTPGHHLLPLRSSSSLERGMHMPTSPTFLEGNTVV

[13] = HIV-1 Vif–A3G interaction blockers – biochemical, TR-FRET, GST-Vif 1-94, biotin-A3G peptide, dose response retest, primary screen (AID 1117319); assay type: functional;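 further: TR-FRET signal of purified GST-Vif binding a biotinylated A3G peptide; inhibitors lower the FRET signal by blocking Vif and A3G binding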
[14] = Luminescence Cell-Based Dose Confirmation HTS to Identify Inhibitors of Platelet Dense Granule Release. [Related pubchem assays: 1663 (Primary HTS), 1678 (Summary of Project)]; assay type: functional
[15] = target: Luciferin 4-monooxygenase (Photinus pyralis, UniProt P08659); assay: inhibition of purified Photinus pyralis luciferase – biochemical, luminescence, dose response (AID 1891)
Chain of Luciferin 4-monooxygenase (P08659 whole entry): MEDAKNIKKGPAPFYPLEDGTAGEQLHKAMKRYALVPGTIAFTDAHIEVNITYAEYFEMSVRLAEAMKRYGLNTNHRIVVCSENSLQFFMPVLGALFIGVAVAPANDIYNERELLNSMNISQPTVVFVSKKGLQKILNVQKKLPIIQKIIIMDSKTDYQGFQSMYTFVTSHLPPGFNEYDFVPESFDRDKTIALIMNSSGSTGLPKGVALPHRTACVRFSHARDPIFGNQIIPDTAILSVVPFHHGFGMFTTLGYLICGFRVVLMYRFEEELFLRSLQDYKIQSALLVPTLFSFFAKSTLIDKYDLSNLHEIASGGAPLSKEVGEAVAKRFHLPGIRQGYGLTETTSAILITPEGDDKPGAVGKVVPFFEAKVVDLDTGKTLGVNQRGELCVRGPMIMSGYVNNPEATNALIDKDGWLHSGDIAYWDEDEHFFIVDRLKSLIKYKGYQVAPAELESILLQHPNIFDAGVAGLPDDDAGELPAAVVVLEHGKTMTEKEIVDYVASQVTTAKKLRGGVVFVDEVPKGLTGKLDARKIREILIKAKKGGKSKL

[16] = Fluorescence Cell-Based Dose Response to Identify Inhibitors of Thrombin Receptor-Activating Peptide SFLLRN-Mediated P-Selectin Induction on Platelets. [Related pubchem assays: 1663 (Primary HTS), 1889 (retest at dose ), 1891 (counterscreen), 1678 (Project Summary)]; assay type: functional
[17] = blockers of bursicon-stimulated LGR2 cAMP reporter – cell-based, HEK293, CRE-luciferase reporter, cherry pick, set 2, dose response (AID 743343); assay type: functional;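 further: transfected cells were stimulated with diluted bursicon conditioned medium after compound addition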
[18] = viability loss in HepG2 hepatoma cells – cell-based, cherry-picks, set 5, cytotoxicity control, dose response (AID 1053118); assay type: functional
[19] = Dd2 parasite growth inhibition in erythrocytes – SYBR Green, dry powder samples, set 9, dose response (AID 1159568); assay type: functional, cell-based
[20] = blockade of melanocortin 4 receptor signaling – cell-based, plate reader, cherry pick, counter-screen for LGR2 antagonist project, dose response (AID 743444); assay type: functional;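 further: transfected HEK 293 cells stimulated with alpha-MSH peptide; potency of inhibitors of the alpha-MSH evoked signal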
[21] = toxicity toward HepG2 liver cells – cell-based, plate reader, cherry-pick, antagonist series, cytotoxicity control, dose response (AID 743416); assay type: functional
[22] = viability loss in HEK293 cells – cell-based, plate reader, cherry-picked samples, cytotoxicity control, dose response (AID 743446); assay type: functional
[23] = viability loss in CEM21 cells – cell-based, CellTiter-Glo luminescence, cherry-picked, cytotoxicity control for viral fusion inhibitor project, dose response (AID 652042); assay type: functional;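 further: potency for signal decrease meaning cytotoxicity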
[24] = A549 cell cytotoxicity, dose response, cytotoxicity control, plate reader, cherry-pick, antagonist series (AID 743412); assay type: functional, cell-based
[25] = viability loss in A549 lung cancer cells – cell-based, cherry-picks, […], cytotoxicity control, dose response (AID 1053119); assay type: functional
SUMO-activating enzyme [26] = target: T2, SUMO-activating enzyme (Homo sapiens, UniProt Q9UBT2); assay: blockers of UBC9-mediated SUMO conjugation – biochemical, AlphaScreen, SUMOylation inhibitor project, confirmation (AID 2018); assay type: functional
T2 sequence (Q9UBE0 whole entry): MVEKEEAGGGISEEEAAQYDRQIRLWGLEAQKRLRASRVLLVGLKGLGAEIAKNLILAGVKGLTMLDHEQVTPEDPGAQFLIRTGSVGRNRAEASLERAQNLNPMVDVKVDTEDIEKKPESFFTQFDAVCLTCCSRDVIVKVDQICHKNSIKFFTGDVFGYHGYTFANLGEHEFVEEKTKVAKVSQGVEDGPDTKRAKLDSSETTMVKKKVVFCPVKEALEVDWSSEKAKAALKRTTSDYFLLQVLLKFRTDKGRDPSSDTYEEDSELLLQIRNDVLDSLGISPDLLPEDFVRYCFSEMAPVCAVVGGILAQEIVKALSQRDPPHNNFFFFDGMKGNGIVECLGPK
T2 sequence (Q9UBT2 whole entry): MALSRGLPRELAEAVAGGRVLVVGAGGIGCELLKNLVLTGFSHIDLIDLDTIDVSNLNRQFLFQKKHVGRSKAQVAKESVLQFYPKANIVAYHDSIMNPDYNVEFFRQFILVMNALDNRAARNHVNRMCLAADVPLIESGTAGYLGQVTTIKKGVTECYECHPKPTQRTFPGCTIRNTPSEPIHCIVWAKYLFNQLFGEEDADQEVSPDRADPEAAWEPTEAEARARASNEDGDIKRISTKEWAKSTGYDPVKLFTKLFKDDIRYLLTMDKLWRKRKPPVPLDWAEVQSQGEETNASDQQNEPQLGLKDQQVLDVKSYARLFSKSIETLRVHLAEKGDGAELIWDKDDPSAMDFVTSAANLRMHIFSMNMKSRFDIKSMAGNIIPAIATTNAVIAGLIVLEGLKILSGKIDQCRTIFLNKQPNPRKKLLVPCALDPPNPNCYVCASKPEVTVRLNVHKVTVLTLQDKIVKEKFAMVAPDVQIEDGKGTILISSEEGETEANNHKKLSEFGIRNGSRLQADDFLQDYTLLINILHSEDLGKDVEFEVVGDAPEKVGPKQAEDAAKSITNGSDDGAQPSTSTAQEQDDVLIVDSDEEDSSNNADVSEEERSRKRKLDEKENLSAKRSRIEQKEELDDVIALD

SUMO-activating enzyme [27] = target: T2, SUMO-activating enzyme; assay: blockers of SAE1/SAE2–UBC9 SUMO transfer – biochemical, HTRF, uHTS, primary screen (AID 2006); assay type: protein-complex assay
Genome polyprotein = Genome polyprotein (Hepatitis C virus, UniProt Q2Q167); assay: disruption of hepatitis C core self-association – biochemical, TR-FRET, dose response (AID 2159); design: species or system Hepacivirus hominis;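 further: blocks dimerization of HCV core protein measured by TR-FRET between tagged core106 pairs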
Chain of Genome polyprotein (Q2Q167 whole entry): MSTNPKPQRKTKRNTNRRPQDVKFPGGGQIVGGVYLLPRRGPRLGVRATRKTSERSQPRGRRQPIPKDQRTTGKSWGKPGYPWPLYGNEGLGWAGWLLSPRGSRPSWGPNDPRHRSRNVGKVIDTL

[28] = P. falciparum Dd2 growth inhibitors, dose response, SYBR Green, cherry-picked samples (AID 1159567); assay type: functional, cell-based
[29] = growth inhibition of PfATP4-mutant resistant parasites – NITD609-resistant line, SYBR Green, dry powder, dose response (AID 1159571); assay type: functional, cell-based;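 further: parasites synchronized at ring stage by sorbitol before testing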
[30] = Plasmodium falciparum Dd2 Sybr green parasite growth Measured in Cell-Based and Microorganism Combination System Using Plate Reader - 2153-01_Inhibitor_Dose_DryPowder_Activity_Set3.; assay type: functional
[31] = Dd2 malaria parasite growth inhibition potency – SYBR Green, dry powder samples, dose response (AID 1159566); assay type: functional, cell-based;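 further: potency for growth inhibition with lower SYBR green DNA signal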
[32] = growth inhibition of yeast DHODH-expressing 3D7 parasites – SYBR Green, dry powder samples, dose response (AID 1159570); assay type: functional, cell-based;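 further: parasite growth measured after 72 hours of compound exposure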
[33] = Dd2 parasite growth inhibition in erythrocytes – SYBR Green, dry powder samples, set 4, dose response (AID 1159572); assay type: functional, cell-based
[34] = target: G-protein coupled receptor 183 (Homo sapiens, UniProt P32249); assay: SAR confirmation of small molecule antagonists of the EBI2 receptor via a luminescent beta-arrestin assa.; assay type: functional
Chain of G-protein coupled receptor 183 (P32249 whole entry): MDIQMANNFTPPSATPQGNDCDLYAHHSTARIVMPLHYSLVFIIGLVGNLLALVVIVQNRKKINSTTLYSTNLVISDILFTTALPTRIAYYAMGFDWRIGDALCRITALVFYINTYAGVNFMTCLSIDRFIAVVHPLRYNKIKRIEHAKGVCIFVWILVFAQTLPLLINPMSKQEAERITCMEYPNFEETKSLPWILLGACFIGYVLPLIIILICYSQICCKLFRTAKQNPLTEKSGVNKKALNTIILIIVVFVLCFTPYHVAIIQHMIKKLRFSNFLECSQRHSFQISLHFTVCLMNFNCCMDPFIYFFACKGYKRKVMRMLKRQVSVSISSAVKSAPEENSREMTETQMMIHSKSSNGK

[35] = CellTiter-Glo luminescence survival assay, SW480 colon tumor line, concentration-response curve, half-maximal inhibitory concentration (AID 1117338); assay type: functional
[36] = HCT116 cell viability decrease, GSK3B pretreatment – CellTiter-Glo, IC50, dose response (AID 1117339); assay type: functional; conditions: HCT-116
[37] = cytotoxicity toward HCT116 cells – cell-based, CellTiter-Glo luminescence, IC50, dose response (AID 1117332); assay type: functional; conditions: HCT-116
[38] = SNU-C1 cell viability reduction, dose response, CellTiter-Glo luminescence (AID 1117323); assay type: functional, cell-based
[39] = Reduced DLD-1 viability, concentration-response, CellTiter-Glo luminescence (AID 1117352); assay type: functional
[40] = cytotoxicity toward HT-29 cells – cell-based, CellTiter-Glo luminescence, IC50, dose response (AID 1117330); assay type: functional
[41] = cytotoxicity toward Colo320 cells – cell-based, CellTiter-Glo luminescence, IC50, dose response (AID 1117334); assay type: functional; conditions: COLO 320
[42] = RKO cell viability reduction, dose response, CellTiter-Glo luminescence (AID 1117322); assay type: functional

Chain of Mitogen-activated protein kinase 10 (P53779 whole entry): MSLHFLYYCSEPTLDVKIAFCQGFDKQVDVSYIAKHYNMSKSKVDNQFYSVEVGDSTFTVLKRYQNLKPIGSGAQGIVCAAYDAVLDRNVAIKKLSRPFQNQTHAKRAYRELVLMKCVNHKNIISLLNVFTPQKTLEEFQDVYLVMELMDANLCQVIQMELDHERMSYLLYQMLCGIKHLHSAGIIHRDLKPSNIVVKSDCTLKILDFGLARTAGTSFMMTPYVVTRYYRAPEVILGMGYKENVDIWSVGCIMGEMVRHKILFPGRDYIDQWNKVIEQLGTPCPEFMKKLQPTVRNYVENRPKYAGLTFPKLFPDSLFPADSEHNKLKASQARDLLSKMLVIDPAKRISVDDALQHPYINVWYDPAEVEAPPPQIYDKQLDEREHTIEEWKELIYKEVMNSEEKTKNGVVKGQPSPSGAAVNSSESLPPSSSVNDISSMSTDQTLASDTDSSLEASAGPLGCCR

C=C(C)COc1ccc(-c2nc(N)ncc2-c2ccc(OC)cc2)c(O)c1
IC50 [1]: 29.4 µM (not active) | IC50 [2]: > 69.5 µM (inactive) | IC50 [3]: > 69.5 µM (inactive)

O=C(c1cc2cc(Cl)ccc2[nH]1)N1CCN(Cc2ccc3c(c2)OCO3)CC1
IC50 (Beta-galactosidase): > 80 µM (inactive) | IC50 [4]: > 100 µM (active) | CC50 [5]: > 40 µM (active)

CN1c2ccc(Br)cc2Sc2cc(Br)ccc21
IC50 (NADPH oxidase 1 [6]): > 50 µM (not active)

CN1c2ccccc2Sc2cc(C(=O)c3ccccc3)ccc21
IC50 (NADPH oxidase 1 [7]): > 20 µM (not active)

Cc1nn2c(NCc3ccccn3)c3c(nc2c1-c1ccccc1)CCC3
IC50 [8]: 1.03 µM (active)

CCOC(=O)C1CCN(C(=O)Cc2c(C(=O)O)n(C)c3ccccc23)CC1
EC50 [9]: > 50 µM (not active)

Cc1cc(C)nc(NS(=O)(=O)c2ccc(NC(=O)CSc3nc[nH]n3)cc2)n1
IC50 [10]: > 39.8 µM (not active) | IC50 [11]: > 39.8 µM (not active)

COc1ccccc1N1C(=O)CC(Nc2ccc(N3CCOCC3)cc2)C1=O (stereo not given)
IC50 (Protein Tat): 20.1 µM (inconclusive)

CCOC(=O)c1c(C)n(C)c2ccc(OCC(O)Cn3nc(C)cc3C)cc12 (stereo not given)
EC50 [12]: 4.71 µM (active)

Cn1cc(CN2CCN(CCO)CC2)c(-c2ccc(Oc3ccccc3)cc2)n1
IC50 [13]: > 100 µM (active)

CCc1ccc(S(=O)(=O)N/N=C\c2ccc([N+](=O)[O-])o2)cc1
EC50 [14]: 2.02 µM (active) | EC50 [15]: > 112 µM (not active) | EC50 [16]: < 30 µM (active)

O=C(C[C@@H]1C[C@@H]2c3cc(NC(=O)c4ccc5c(c4)OCO5)ccc3O[C@@H]2[C@@H](CO)O1)NCc1ccc(Oc2ccccc2)cc1
AC50 [17]: 33.3 µM (active) | AC50 [18]: 37.1 µM (active) | AC50 [19]: 5.69 µM (active) | AC50 [20]: 7.28 µM (active) | AC50 [21]: 27.7 µM (active) | AC50 [22]: 24.7 µM (active) | AC50 [23]: 26.1 µM (active) | AC50 [24]: 21.2 µM (active) | AC50 [25]: 30.2 µM (active)

COc1ccccc1/C=C/C=c1\sc2nc(=O)c(Cc3ccccc3)nn2c1=O
IC50 (SUMO-activating enzyme [26]): 8.53 µM (active) | IC50 (SUMO-activating enzyme [27]): 11.8 µM (active) | IC50 (Genome polyprotein): > 49.8 µM (not active)

N#C[C@H]1[C@@H](c2ccc(C#CC3CCCC3)cc2)[C@@H](CO)N1S(=O)(=O)Cc1ccccc1
AC50 [28]: 2.73 µM (active) | AC50 [29]: 3.23 µM (active) | AC50 [30]: 3.05 µM (active) | AC50 [31]: 0.982 µM (active) | AC50 [32]: 2.06 µM (active)

COc1ccc2c3c([nH]c2c1)[C@H](CO)N(C(C)=O)CC31CCN(C(=O)CN2CCOCC2)CC1
AC50 [33]: 2.59 µM (active)

CC(C)c1ccc(CN2CCN(C(=O)/C=C/c3ccc(Br)cc3)CC2)cc1
IC50 [34]: 0.00592 µM (active)

CCCCCCCC(=O)OCC(COC(=O)CCCCCCC)OC(=O)CCCCCCC [TRICAPRILIN]
IC50 [35]: > 20 µM (inactive) | IC50 [36]: > 20 µM (inactive) | IC50 [37]: > 20 µM (inactive) | IC50 [38]: > 20 µM (inactive) | IC50 [39]: > 20 µM (inactive) | IC50 [40]: > 20 µM (inactive) | IC50 [41]: > 20 µM (inactive) | IC50 [42]: > 20 µM (inactive)
